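In this assay, cells in 96-well plates receive the compound at five concentrations for 48 hours. Endpoints are linearly interpolated between the surrounding concentrations. Here, GI50 denotes the concentration required for 50% inhibition of growth. TGI denotes the concentration required for complete inhibition of growth.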
What was measured:
Test in all cases: NCI anticancer screen, dose series, 48 h
A498 renal = tested on: A498 renal
CCRF-CEM leukemia = tested on: CCRF-CEM leukemia
COLO 205 colon = tested on: COLO 205 colon
HS 578T breast = tested on: HS 578T breast
MALME-3M melanoma = tested on: MALME-3M melanoma
MDA-MB-435 = tested on: MDA-MB-435
MOLT-4 leukemia = tested on: MOLT-4 leukemia
SK-MEL-5 melanoma = tested on: SK-MEL-5 melanoma
UACC-257 melanoma = tested on: UACC-257 melanoma
UACC-62 melanoma = tested on: UACC-62 melanoma

Row | Structure (SMILES) | TGI (A498 renal) [µM] | TGI (CCRF-CEM leukemia) [µM] | TGI (COLO 205 colon) [µM] | TGI (HS 578T breast) [µM] | TGI (MALME-3M melanoma) [µM] | TGI (MDA-MB-435) [µM] | TGI (MOLT-4 leukemia) [µM] | TGI (SK-MEL-5 melanoma) [µM] | TGI (UACC-257 melanoma) [µM] | TGI (UACC-62 melanoma) [µM] | GI50 (A498 renal) [µM] | GI50 (COLO 205 colon) [µM] | GI50 (HS 578T breast) [µM] | GI50 (MALME-3M melanoma) [µM] | GI50 (MDA-MB-435) [µM] | GI50 (MOLT-4 leukemia) [µM] | GI50 (SK-MEL-5 melanoma) [µM] | GI50 (UACC-257 melanoma) [µM] | GI50 (UACC-62 melanoma) [µM] | GI50 (CCRF-CEM leukemia) [µM]
1 | CC(=O)O[C@H]1CC[C@@]2(C)C(=CC[C@@H]3[C@@H]2CC[C@]2(C)c4c(n[nH]c4C)C[C@@H]32)C1 | 41 | 25.1 | 35.4 | 48 | 12.7 | 33.9 | 53.4 | 29.5 | 33.2 | 25 | – | – | – | – | – | – | – | – | – | –
2 | C[C@@H](C[C@H]1OC(C)(C)O[C@@H]1C(C)(C)O)[C@H]1CC=C2[C@]3(C)[C@H](O)C[C@H]4C(C)(C)[C@H](O)CC[C@]4(C)[C@H]3CC[C@]21C | 18.5 | 14.1 | 10.5 | 16.6 | 26.3 | 17.7 | 14.7 | 18.3 | 20.4 | 34 | – | – | – | – | – | – | – | – | – | –
3 | COc1ccc(-c2c(-c3ccccc3)c(C)c3ccccn23)cc1 | > 100 | > 100 | > 100 | > 100 | > 100 | > 100 | > 100 | > 100 | > 100 | > 100 | – | – | – | – | – | – | – | – | – | –
4 | CC12CC(=O)Nc3ccccc3N1C(c1ccccc1)=NO2 (stereo not given) | > 100 | > 100 | > 100 | > 100 | > 100 | > 100 | > 100 | > 100 | > 100 | > 100 | – | – | – | – | – | – | – | – | – | –
5 | O=C1NC(Nc2ccccc2)=N/C1=C\c1c(Cl)cccc1Cl | > 100 | 54.1 | > 100 | 95 | 56.5 | > 100 | 64.1 | 37.6 | 78.1 | > 100 | – | – | – | – | – | – | – | – | – | –
6 | Cc1cccc2[nH]c3c(c(O)cc4[nH]c5cccc(C)c5c(=O)c43)c(=O)c12 | > 10 | > 10 | > 10 | > 10 | > 10 | > 10 | > 10 | > 10 | > 10 | > 10 | – | – | – | – | – | – | – | – | – | –
7 | O=C1C[C@@]23CCC4(CC2CCC[C@H]3O1)OCCO4 (stereo not given in full) | > 100 | – | > 100 | > 100 | > 100 | > 100 | > 100 | > 100 | > 100 | > 100 | – | – | – | – | – | – | – | – | – | –
8 | O=[N+]([O-])c1ccc(C2ON=C(c3ccccc3)N2C23CC4CC(CC(C4)C2)C3)cc1 (stereo not given) | > 10 | > 10 | > 10 | > 10 | > 10 | > 10 | > 10 | > 10 | > 10 | > 10 | – | – | – | – | – | – | – | – | – | –
9 | COc1c2c(nc3ccccc13)-c1cc(C(CC(=O)OC(C)(C)C)C(=O)OC(C)C)c(CO)c(=O)n1C2 (stereo not given) | > 100 | > 100 | > 100 | > 100 | > 100 | > 100 | > 100 | > 100 | > 100 | 98.3 | – | – | – | – | – | – | – | – | – | –
10 | O=c1nc2ccc([N+](=O)[O-])cc2[n+]([O-])[nH]1 | > 100 | > 100 | > 100 | > 100 | > 100 | > 100 | > 100 | > 100 | > 100 | > 100 | – | – | – | – | – | – | – | – | – | –
11 | Cc1cc(N/N=C/c2nc(-c3ccc(Cl)cc3)oc2C)c2cc(Br)ccc2n1 | 26.5 | – | 10.6 | 28.3 | 4.23 | 3.94 | 13.5 | 23.9 | 15 | 4.43 | 10.4 | 2.86 | 4.33 | 1.91 | 1.91 | 2.66 | 11.7 | 3.49 | 2.02 | –
12 | C/C(=N\NC(=O)c1ccc(Cl)cc1)c1nc2ncccc2[nH]1 | > 100 | > 100 | 96.3 | 93.5 | 48.9 | > 100 | 90.6 | 55.6 | 79.9 | 55.4 | – | – | – | – | – | – | – | – | – | –
13 | CCOC(=O)c1sc2c(c1OC(=O)c1cc(OC)c(OC)c(OC)c1)c(=O)n(-c1ccccc1)c(=S)n2-c1ccccc1 | > 100 | > 100 | > 100 | > 100 | > 100 | > 100 | > 100 | > 100 | > 100 | > 100 | – | – | – | – | – | – | – | – | – | –
14 | COc1cc(C2c3cc4c(cc3OC(NNS(=O)(=O)c3ccc(C)cc3)C2C)OCO4)cc(OC)c1OC (stereo not given) | 5.69 | – | 16.8 | 15.2 | > 60.8 | 2.25 | > 100 | 25 | > 53.2 | 20.3 | – | – | – | – | – | – | – | – | – | –
15 | O=c1[nH]nc(-c2ccccc2)n1/N=C/c1ccccc1O | > 100 | – | > 100 | 96.2 | > 100 | > 100 | > 100 | > 100 | > 100 | > 100 | – | – | – | – | – | – | – | – | – | –
16 | Cc1cn(-c2cccc(NC(=O)c3ccc(C)c(Nc4nccc(-c5cccnc5)n4)c3)c2)cn1 | 23 | 10.9 | 3.65 | 5.43 | 2.99 | 3.87 | 6.56 | 7.46 | 3 | 3.35 | 10.9 | 2.09 | 1.77 | 1.51 | 1.86 | 1.92 | 2.16 | 1.59 | 1.65 | 1.23
17 | CCC(C)C(N)C(=O)N/N=C\c1c2c(nc3ccccc13)-c1cc3c(c(=O)n1C2)COC(=O)[C@]3(O)CC (stereo not given in full) | 1.43 | – | > 51.6 | > 100 | 19.7 | > 81 | 1.86 | 0.452 | 11.9 | 0.106 | – | – | – | – | – | – | – | – | – | –
18 | N#[N+]c1c([O-])c2ccccc2c2ccccc12 | 46.9 | > 100 | > 100 | > 100 | – | > 100 | > 100 | 35.4 | > 100 | 69.7 | – | – | – | – | – | – | – | – | – | –
19 | O=C1/C(=C\c2ccc(Br)cc2)CCCc2ccccc21 | 45.6 | 53 | 31.8 | 49 | – | 61.5 | 58.5 | – | 39.6 | 26.5 | – | – | – | – | – | – | – | – | – | –
20 | COc1ccc2cc(CNCCCCCCCCNCc3ccc4cc(OC)ccc4c3)ccc2c1 | 9.68 | 7.27 | 29.6 | > 20.8 | – | 9.83 | 7.5 | > 100 | 10.1 | 3.79 | – | – | – | – | – | – | – | – | – | –

— PubChem BioAssay (NCI)
